Source: patent US20050123613A1, “Activated carbon infusion solution, preparation method therefor and use thereof for the manufacture of drug for treating cancer” (priority 2003, published 2005)

Assays:
[1] = Measured adsorption values of drugs on activated carbon; assay type: physicochemical; details: specific surface area 6800M^2/g
[2] = Measured adsorption values of drugs on hydroxyl-amino carbon; assay type: physicochemical; details: specific surface area 6800M^2/g
[3] = system: cancer patients; assay: Experimental clinical cases, intravenous injection; assay type: in vivo, human; details: Case 4, breast cancer with systematic metastasis, before activated carbon treatment

Compound	Adsorption value on activated carbon [1] [mg]	Adsorption value on hydroxyl-amino carbon [2] [mg]	Analgesia [3]
O=c1[nH]cc(Cl)c(=O)[nH]1 [5-chlorouracil]	75	102	
O=c1[nH]cc(F)c(=O)[nH]1 [5-fluorouracil, reference compound]		49	
O=P1(N(CCCl)CCCl)NCCCO1 (stereo not drawn) [CTX, reference compound]	98	136	
S=c1nc[nH]c2nc[nH]c12 [Example 6-MP, 6-MP, reference compound]	220	304	
CN1CC[C@]23c4c5ccc(O)c4O[C@H]2[C@@H](O)C=C[C@H]3[C@H]1C5 [Morphine]			of no effect
Nc1ncnc2nc[nH]c12 [adenine]	213	260	
ClC(Cl)Cl [chloroform]	10	4	
N.N.[Cl][Pt][Cl] [cisplatin, reference compound]	995	1105	
Nc1nc2nc[nH]c2c(=O)[nH]1 [guanine]	331	378	
Cc1c[nH]c(=O)[nH]c1=O [thymine]	5	17	
O=c1cc[nH]c(=O)[nH]1 [uracil]	33	51	
ferroporphyrin	283	311	
thymopeptide	90	127	
